Assay results from ChEMBL document CHEMBL5523747, “Discovery of a Series of Orally Bioavailable Androgen Receptor Degraders for the Treatment of Prostate Cancer” (J Med Chem, 2024).
Calls of active or inactive are those of the source. The rule behind the calls is not given here.

Key:
LNCaP C4-2 [1] = test: In vivo degradation of AR in human LNCaP C4-2 cells xenografted in mouse model assessed as tumor growth inhibition at 10 mg/kg, po once daily measured after 28 days relative to control; type: functional, organism-based; conditions: time 28.0 day
[2] = molecular target: T1, Protein cereblon/Androgen receptor (Homo sapiens, UniProt P10275+Q96SW2); test: PROTAC activity at AR/CRBN in human LNCaP cells assessed as protein degradation measured after 24 hrs incubation by imaging IF assay; type: cell-based
Target sequence in this assay (P10275 whole entry): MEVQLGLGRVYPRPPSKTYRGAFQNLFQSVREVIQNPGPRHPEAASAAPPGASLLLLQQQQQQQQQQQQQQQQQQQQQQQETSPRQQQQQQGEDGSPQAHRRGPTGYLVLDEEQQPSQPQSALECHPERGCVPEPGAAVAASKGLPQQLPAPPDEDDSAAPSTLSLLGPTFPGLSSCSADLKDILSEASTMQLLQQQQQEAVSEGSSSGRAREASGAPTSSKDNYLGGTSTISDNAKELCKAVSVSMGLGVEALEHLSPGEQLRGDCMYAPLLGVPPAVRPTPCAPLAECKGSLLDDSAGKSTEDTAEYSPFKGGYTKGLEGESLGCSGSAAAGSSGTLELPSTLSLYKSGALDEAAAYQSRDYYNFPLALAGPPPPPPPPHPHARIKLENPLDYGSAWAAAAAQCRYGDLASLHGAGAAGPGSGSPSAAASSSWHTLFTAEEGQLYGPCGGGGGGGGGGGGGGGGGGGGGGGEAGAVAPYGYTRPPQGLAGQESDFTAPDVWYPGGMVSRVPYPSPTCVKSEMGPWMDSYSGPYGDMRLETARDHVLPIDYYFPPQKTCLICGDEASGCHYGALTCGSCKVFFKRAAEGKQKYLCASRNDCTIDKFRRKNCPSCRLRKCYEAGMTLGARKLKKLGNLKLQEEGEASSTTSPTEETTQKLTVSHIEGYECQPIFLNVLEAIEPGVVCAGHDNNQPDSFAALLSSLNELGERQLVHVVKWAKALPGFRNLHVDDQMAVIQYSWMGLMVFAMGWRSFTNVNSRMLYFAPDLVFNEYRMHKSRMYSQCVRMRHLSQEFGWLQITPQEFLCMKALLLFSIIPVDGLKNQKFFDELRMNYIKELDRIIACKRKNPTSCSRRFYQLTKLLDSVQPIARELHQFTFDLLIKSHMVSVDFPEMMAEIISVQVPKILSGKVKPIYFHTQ
Target sequence in this assay (Q96SW2 whole entry): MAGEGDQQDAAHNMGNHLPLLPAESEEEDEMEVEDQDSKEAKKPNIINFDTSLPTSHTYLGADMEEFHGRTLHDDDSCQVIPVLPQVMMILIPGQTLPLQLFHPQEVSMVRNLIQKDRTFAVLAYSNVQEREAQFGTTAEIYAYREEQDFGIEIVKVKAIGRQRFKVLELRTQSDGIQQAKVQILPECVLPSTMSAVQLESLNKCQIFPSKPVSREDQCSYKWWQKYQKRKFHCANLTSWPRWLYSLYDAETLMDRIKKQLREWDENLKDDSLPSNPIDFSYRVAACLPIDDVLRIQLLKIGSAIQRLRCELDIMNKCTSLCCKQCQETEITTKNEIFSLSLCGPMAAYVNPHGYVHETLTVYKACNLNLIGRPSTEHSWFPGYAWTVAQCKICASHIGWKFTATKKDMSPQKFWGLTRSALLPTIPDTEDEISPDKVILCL

[3] = molecular target: T1, Protein cereblon/Androgen receptor; test: PROTAC activity at AR/CRBN in human LNCaP cells assessed as maximal protein degradation measured after 24 hrs incubation by imaging IF assay relative to control; type: cell-based
Target sequence in this assay (P10275 whole entry, looked up): as the sequence (P10275 whole entry) above
Target sequence in this assay (Q96SW2 whole entry, looked up): as the sequence (Q96SW2 whole entry) above

[4] = molecular target: Protein cereblon/Androgen receptor (Homo sapiens, UniProt P10275+Q96SW2, L702H); test: PROTAC activity at CRBN/AR L702H mutant (unknown origin) expressed in human LNCaP cells assessed as protein degradation measured after 24 hrs incubation by imaging IF assay; type: cell-based
Sequence of Protein cereblon/Androgen receptor (Homo sapiens, UniProt P10275+Q96SW2, L702H) (P10275 whole entry L702H, stated change not applied): as the sequence (P10275 whole entry) above, with L702H counted along it
Sequence of Protein cereblon/Androgen receptor (Homo sapiens, UniProt P10275+Q96SW2, L702H) (Q96SW2 whole entry, stated change not applied): as the sequence (Q96SW2 whole entry) above

[5] = molecular target: von Hippel-Lindau disease tumor suppressor/Androgen receptor (Homo sapiens) (UniProt P10275+P40337); test: PROTAC activity at AR/VHL in human LNCaP cells assessed as maximal protein degradation measured after 24 hrs incubation by imaging IF assay relative to control; type: cell-based
Sequence of von Hippel-Lindau disease tumor suppressor/Androgen receptor (Homo sapiens) (P10275 whole entry, looked up): as the sequence (P10275 whole entry) above
Sequence of von Hippel-Lindau disease tumor suppressor/Androgen receptor (Homo sapiens) (P40337 whole entry, looked up): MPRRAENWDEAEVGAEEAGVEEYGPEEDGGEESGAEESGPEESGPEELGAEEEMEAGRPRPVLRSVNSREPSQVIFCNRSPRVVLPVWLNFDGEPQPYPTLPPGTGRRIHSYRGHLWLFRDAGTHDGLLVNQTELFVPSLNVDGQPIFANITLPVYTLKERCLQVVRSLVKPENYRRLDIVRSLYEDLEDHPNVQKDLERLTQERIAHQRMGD

[6] = Metabolic stability in human liver microsomes assessed as intrinsic clearance; type: ADME, Microsome; conditions: read-out: CLH
[7] = test system: Protein cereblon/Androgen receptor (Homo sapiens), P10275+Q96SW2 [L702H]; test: PROTAC activity at CRBN/AR L702H mutant (unknown origin) expressed in human LNCaP cells assessed as maximal protein degradation measured after 24 hrs incubation by imaging IF assay relative to control; type: cell-based
[8] = Volume of distribution at steady state in CD-1 mouse at 1 mg/kg, po and 0.5 mg/kg, iv; type: ADME, organism-based; conditions: in vivo
[9] = Half life in CD-1 mouse at 1 mg/kg, po and 0.5 mg/kg, iv; type: ADME, organism-based; conditions: in vivo
[10] = Oral bioavailability in CD-1 mouse at 1 mg/kg; type: ADME, organism-based; conditions: in vivo
LNCaP C4-2 [11] = test: In vivo degradation of AR in human LNCaP C4-2 cells xenografted in mouse model assessed as tumor growth inhibition at 50 mg/kg, po once daily measured after 28 days relative to control; type: functional, organism-based; conditions: time 28.0 day
[12] = Volume of distribution at steady state in CD-1 mouse at 1 mg/kg, po and 0.5 mg/kg, iv bolus; type: ADME, organism-based; conditions: in vivo
[13] = Half life in CD-1 mouse at 1 mg/kg, po and 0.5 mg/kg, iv bolus; type: ADME, organism-based; conditions: in vivo
[14] = Volume of distribution at steady state in Han Wistar rat at 1 mg/kg, po and 0.5 mg/kg, iv bolus; type: ADME, organism-based; conditions: in vivo
[15] = Half life in Han Wistar rat at 1 mg/kg, po and 0.5 mg/kg, iv bolus; type: ADME, organism-based; conditions: in vivo
[16] = Oral bioavailability in Han Wistar rat at 1 mg/kg; type: ADME, organism-based; conditions: in vivo
[17] = Volume of distribution at steady state in Beagle dog at 1 mg/kg, po and 0.5 mg/kg, iv infusion over 0.25 hrs; type: ADME, organism-based, Canis lupus familiaris; conditions: in vivo
[18] = Half life in Beagle dog at 1 mg/kg, po and 0.5 mg/kg, iv infusion over 0.25 hrs; type: ADME, organism-based, Canis lupus familiaris; conditions: in vivo
[19] = Oral bioavailability in Beagle dog at 1 mg/kg; type: ADME, organism-based, Canis lupus familiaris; conditions: in vivo
[20] = Permeability of compound in human Caco-2 cells; type: ADME, cell-based
[21] = Aqueous solubility of compound at pH 7.4 buffer; type: physicochemical

N#Cc1ccc(O[C@H]2CC[C@H](NC(=O)c3ccc(N4CCC(CN5CCN(c6cc7c(cc6F)C(=O)N(C6CCC(=O)NC6=O)C7=O)CC5)CC4)nn3)CC2)cc1Cl (stereo not given in full)
Activity (LNCaP C4-2 [1]): Active

N#Cc1ccc(N2CCC(c3ccc(N4CCC(CN5CCN(c6ccc7c(c6)CN(C6CCC(=O)NC6=O)C7=O)CC5)CC4)cc3)CC2)c(Cl)c1C(F)(F)F (stereo not given)
DC50 [2]: 48 nM | Emax [3]: 80% | DC50 [4]: 144 nM

Cc1ncsc1-c1ccc([C@H](C)NC(=O)[C@@H]2C[C@@H](O)CN2C(=O)[C@@H](NC(=O)COCCCCCNc2ccc(C(=O)N[C@H]3C(C)(C)[C@H](Oc4ccc(C#N)c(Cl)c4)C3(C)C)cc2)C(C)(C)C)cc1
Emax [5]: 100%

N#Cc1ccc(N2CCC(c3ccc(OCCCCN4CCN(c5ccc6c(c5)C(=O)N(C5CCC(=O)NC5=O)C6=O)CC4)cc3)CC2)cc1C(F)(F)F (stereo not given)
DC50 [2]: 22 nM | Emax [3]: 100% | microsomal CLint [6]: 21 µL/min/mg

N#Cc1ccc(N2CCC(c3ccc(N4CCC(CN5CCN(c6cc7c(cc6F)C(=O)N(C6CCC(=O)NC6=O)C7=O)CC5)CC4)cc3)CC2)c(F)c1C(F)(F)F (stereo not given)
DC50 [2]: 87 nM | Emax [3]: 100% | DC50 [4]: 992 nM | Emax [7]: 100%

COc1cc(N2CCN(CC3CCN(c4cc(F)c(C5CCN(c6ccc(C#N)c(C(F)(F)F)c6F)CC5)c(F)c4)CC3)CC2)cc2c1C(=O)N(C1CCC(=O)NC1=O)C2 (stereo not given)
DC50 [2]: 18 nM | Emax [3]: 100% | DC50 [4]: 633 nM | Emax [7]: 80% | Vdss [8]: 3.6 L/kg | half-life [9]: 2460 min | bioavailability [10]: 30%

N#Cc1ccc(N2CCC(c3ccc(OCCCCCN4CCN(c5ccc6c(c5)CN(C5CCC(=O)NC5=O)C6=O)CC4)cc3)CC2)cc1C(F)(F)F (stereo not given)
DC50 [2]: 15 nM | Emax [3]: 94% | microsomal CLint [6]: 12 µL/min/mg

N#Cc1ccc(N2CCC(c3ccc(N4CCC(CN5CCN(c6ccc7c(c6)CN(C6CCC(=O)NC6=O)C7=O)CC5)CC4)cc3)CC2)cc1C(F)(F)F (stereo not given)
DC50 [2]: 18 nM | Emax [3]: 85% | microsomal CLint [6]: 3 µL/min/mg | DC50 [4]: > 3000 nM | Vdss [8]: 4.5 L/kg | half-life [9]: 1140 min | bioavailability [10]: 46%

N#Cc1ccc(N2CCC(c3ccc(N4CCC(CN5CCN(c6ccc7c(c6)C(=O)N(C6CCC(=O)NC6=O)C7=O)CC5)CC4)cc3)CC2)c(F)c1C(F)(F)F (stereo not given)
DC50 [2]: 170 nM | Emax [3]: 100% | DC50 [4]: 1330 nM | Emax [7]: 100% | Vdss [8]: 6.2 L/kg | half-life [9]: 1920 min | bioavailability [10]: 77%

CNC(=O)c1ccc(N2C(=S)N(c3ccc(C#N)c(C(F)(F)F)c3)C(=O)C2(C)C)cc1F
Activity (LNCaP C4-2 [11]): Active

Cc1c(N2CCC(c3ccc(N4CCC(CN5CCN(c6ccc7c(c6)CN(C6CCC(=O)NC6=O)C7=O)CC5)CC4)cc3)CC2)ccc(C#N)c1C(F)(F)F (stereo not given)
DC50 [2]: 152 nM | Emax [3]: 70% | DC50 [4]: > 3000 nM

COc1cc(N2CCN(CC3CCN(c4ccc(C5CCN(c6ccc(C#N)c(C(F)(F)F)c6F)CC5)c(F)c4)CC3)CC2)cc2c1C(=O)N(C1CCC(=O)NC1=O)C2 (stereo not given)
DC50 [2]: 12 nM | Emax [3]: 100% | DC50 [4]: 469 nM | Emax [7]: 100% | Vdss [8]: 2.2 L/kg | half-life [9]: 1020 min | bioavailability [10]: 50%

N#Cc1ccc(N2CCC(c3ccc(OCCCCN4CCN(c5ccc6c(c5)CN(C5CCC(=O)NC5=O)C6=O)CC4)cc3)CC2)c(F)c1C(F)(F)F (stereo not given)
DC50 [2]: 9 nM | Emax [3]: 100% | DC50 [4]: 107 nM | Emax [7]: 78% | Vdss [8]: 3.4 L/kg | half-life [9]: 420 min | bioavailability [10]: 30%

N#Cc1ccc(N2CCC(c3ccc(OCCCN4CCN(c5ccc6c(c5)CN(C5CCC(=O)NC5=O)C6=O)CC4)cc3)CC2)cc1C(F)(F)F (stereo not given)
DC50 [2]: 16 nM | Emax [3]: 79% | microsomal CLint [6]: 5 µL/min/mg

COc1cc(N2CCN(CC3CCN(c4ccc(C5CCN(c6ccc(C#N)c(C(F)(F)F)c6)CC5)cc4)CC3)CC2)cc2c1C(=O)N(C1CCC(=O)NC1=O)C2 (stereo not given)
DC50 [2]: 26 nM | Emax [3]: 92% | microsomal CLint [6]: < 3 µL/min/mg | Vdss [12]: 2.4 L/kg | half-life [13]: 408 min | Vdss [14]: 7.8 L/kg | half-life [15]: 546 min | bioavailability [16]: 27% | Vdss [17]: 13 L/kg | half-life [18]: 1260 min | bioavailability [19]: 19% | DC50 [4]: > 3000 nM | Vdss [8]: 2.4 L/kg | half-life [9]: 408 min | bioavailability [10]: 50% | Papp [20]: < 0.05 ×10⁻⁶ cm/s | solubility [21]: < 2 µM

N#Cc1ccc(N2CCC(c3ccc(N4CCC(CN5CCN(c6ccc7c(c6)CN(C6CCC(=O)NC6=O)C7=O)CC5)CC4)cc3)CC2)c(F)c1C(F)(F)F (stereo not given)
DC50 [2]: 23 nM | Emax [3]: 95% | DC50 [4]: 77 nM | Vdss [8]: 2 L/kg | half-life [9]: 1170 min | bioavailability [10]: 48%

N#Cc1ccc(N2CCC(c3ccc(OCCCCN4CCN(c5ccc6c(c5)CN(C5CCC(=O)NC5=O)C6=O)CC4)cc3)CC2)cc1C(F)(F)F (stereo not given)
DC50 [2]: 7 nM | Emax [3]: 97% | microsomal CLint [6]: 10 µL/min/mg | Vdss [12]: 5.2 L/kg | half-life [13]: 300 min | Vdss [14]: 6.2 L/kg | half-life [15]: 396 min | bioavailability [16]: 20% | Vdss [17]: 7.1 L/kg | half-life [18]: 3210 min | bioavailability [19]: 8% | DC50 [4]: > 3000 nM | Vdss [8]: 5.2 L/kg | half-life [9]: 300 min | bioavailability [10]: 47% | Papp [20]: < 0.05 ×10⁻⁶ cm/s | solubility [21]: < 2 µM

N#Cc1ccc(N2CCC(c3ccc(N4CCC(CN5CCN(c6cc7c(cc6F)C(=O)N(C6CCC(=O)NC6=O)C7)CC5)CC4)cc3)CC2)cc1C(F)(F)F (stereo not given)
DC50 [2]: 180 nM | Emax [3]: 92% | microsomal CLint [6]: < 3 µL/min/mg
